Values joined by “and” are separate entries in the source; they are usually repeats but may differ in a detail not shown here. Equal entries are not always repeated.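 Dose response: 5 concentrations. Exposure: 48 h. Format: 96-well plates. Endpoint: linear interpolation; highest concentration if not reached. At the GI50, growth is halved. TGI denotes the concentration required for complete inhibition of growth.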
Legend:
Experiment in all cases: DTP human tumour cell line panel, 48 h
SNB-75 CNS = test system: SNB-75 CNS
NCI-H460 lung = test system: NCI-H460 lung
OVCAR-8 ovarian = test system: OVCAR-8 ovarian
RPMI-8226 leukemia = test system: RPMI-8226 leukemia
SF-295 CNS = test system: SF-295 CNS
K-562 leukemia = test system: K-562 leukemia
EKVX NSCLC = test system: EKVX NSCLC
SK-MEL-2 melanoma = test system: SK-MEL-2 melanoma
SW-620 colon = test system: SW-620 colon
KM12 colon = test system: KM12 colon

Row | SMILES | GI50 (SNB-75 CNS) [µM] | TGI (SNB-75 CNS) [µM] | GI50 (NCI-H460 lung) [µM] | TGI (NCI-H460 lung) [µM] | GI50 (OVCAR-8 ovarian) [µM] | TGI (OVCAR-8 ovarian) [µM] | GI50 (RPMI-8226 leukemia) | TGI (RPMI-8226 leukemia) [µM] | GI50 (SF-295 CNS) [µM] | TGI (SF-295 CNS) [µM] | GI50 (K-562 leukemia) | TGI (K-562 leukemia) [µM] | GI50 (EKVX NSCLC) | TGI (EKVX NSCLC) [µM] | GI50 (SK-MEL-2 melanoma) [µM] | TGI (SK-MEL-2 melanoma) [µM] | GI50 (SW-620 colon) [µM] | TGI (SW-620 colon) [µM] | GI50 (KM12 colon) [µM] | TGI (KM12 colon) [µM]
1 | C=C1C(=O)O[C@H]2[C@H]1CC/C(Cn1cc(-c3cccc(Cl)c3)nn1)=C\CC[C@@]1(C)O[C@@H]21 | 1.16 | 2.39 | 2.13 | 4.52 | 1.31 | 2.85 | 0.506 µM | 3.36 | 3.41 | 13 | 0.405 µM | 2.44 | 1.57 µM | 2.92 | 1.66 | 3.28 | 0.33 | 1.2 | 1.78 | 3.74
2 | O=C1C2c3[nH]c4ccccc4c3C3CCCCCC3C2C(=O)N1c1ccccc1 (stereo not given) | – | 8.41 | – | > 77.4 | – | 34 | – | > 100 | – | > 65.5 | – | > 100 | – | > 100 | – | 67.2 | – | > 100 | – | > 100
3 | COc1cc(C2C(C(=O)Nc3ccc([N+](=O)[O-])cc3)=C(C)NC(C)=C2C(=O)Nc2ccc([N+](=O)[O-])cc2)ccc1O | – | > 86.3 | – | > 62.1 | – | > 54.2 | – | 59.6 | – | 65.7 | – | 81.6 | – | > 100 | – | 34.7 | – | 52.3 | – | 39
4 | CC(C)(C)NC(=O)[C@H]1CC[C@H]2[C@@H]3CC[C@H]4NC(=O)C=C[C@]4(C)[C@H]3CC[C@]12C | > 100 | > 100 | > 100 | > 100 | > 100 | > 100 | 42.8 µM and 67.2 µM | > 100 | > 100 | > 100 | 53.5 µM and > 100 µM | > 100 | 70.1 µM and > 100 µM | > 100 | – | > 100 | > 100 | > 100 | > 100 | > 100
5 | CC(=O)[CH-]C(=O)c1ccccc1.CC(=O)[CH-]C(=O)c1ccccc1.CC(C)CCC[C@H](C)C1CCC2[C@@H]3CC=C4C[C@@H]([O-])CC[C@]4(C)C3CC[C@@]21C.CC(C)CCC[C@H](C)C1CCC2[C@@H]3CC=C4C[C@@H]([O-])CC[C@]4(C)C3CC[C@@]21C.Cl.[Ti+4] (stereo not given in full) | 22.1 | > 25 | > 25 | > 25 | > 25 | > 25 | > 25 µM | > 25 | > 25 | > 25 | > 25 µM | > 25 | > 25 µM | > 25 | > 25 | > 25 | > 25 | > 25 | > 25 | > 25
6 | N#Cc1ccccc1C#C/C=C\C#CC#C/C=C\C#Cc1ccccc1C#N | – | – | 41.3 | > 100 | 47.6 | > 100 | 4.11 µM | > 100 | 16.3 | 53 | – | – | 16.5 µM | > 100 | 22.1 | 62.7 | 9.1 | > 100 | 16.9 | 38.4
7 | COc1c(O)cc2c(c1O)C(=O)C1=C(CCCC1)C2=O | – | – | – | 73.4 | – | 57.5 | – | 32.6 | – | 65.2 | – | – | – | 86.6 | – | > 100 | – | > 100 | – | 65.5
8 | O=C(CCl)Nc1cc(Cl)c(Cl)cc1Cl | – | – | – | 7.04 | – | 3.1 | – | > 10 | – | > 10 | – | > 10 | – | 4.67 | – | 3.44 | – | 5.72 | – | 0.83
9 | COc1cccc2nc3ccccc3nc12 | – | > 100 | – | > 100 | – | 69.1 | – | 69.1 | – | > 100 | – | > 100 | – | > 100 | – | – | – | > 100 | – | > 100
10 | COc1ccc2nc(-c3ccccc3)cc(Nc3cccc(C(C)=O)c3)c2c1 | 12.2 | 38.4 | 6.38 | 40.7 | 2.23 | 14.8 | 33.2 µM | > 100 | 12.7 | 31.6 | 7.73 µM | > 100 | 13.6 µM | 34.3 | 38.8 | > 100 | 2.7 | 15.1 | – | –
11 | CCN(CC)CC(=O)NC1c2ccccc2Oc2c(C)cccc21 (stereo not given) | – | > 100 | – | > 100 | – | > 100 | – | > 100 | – | – | – | > 100 | – | > 100 | – | – | – | > 100 | – | –
12 | COc1ccc(-c2ccccc2)c2[nH]c3c(c12)CCNC3=O | – | > 100 | – | > 100 | – | > 100 | – | > 100 | – | > 100 | – | > 100 | – | > 100 | – | – | – | > 100 | – | > 100
13 | Cc1ccc(-c2nc3cc(Cl)c(Cl)cc3nc2C#N)cc1 | > 100 | > 100 | > 100 | > 100 | > 100 | > 100 | – | – | > 100 | > 100 | > 100 µM | > 100 | > 100 µM | > 100 | > 100 | > 100 | > 100 | > 100 | > 100 | > 100
14 | O=C(N/C(=C\c1ccccc1Cl)c1nc2ccccc2[nH]1)c1ccccc1 | – | – | – | – | – | > 100 | – | – | – | 43.4 | – | > 100 | – | 88 | – | 51.8 | – | > 100 | – | > 100
15 | COC(=O)C1C(=O)O[C@@H](c2ccc(OC)c(OC)c2OC)C1C(=O)OC (mixture of isomers) | – | > 100 | – | > 100 | – | > 100 | – | > 100 | – | > 100 | – | > 100 | – | > 100 | – | – | – | > 100 | – | > 100
16 | CCN(CC)CCN1C(=O)C2C3C(=O)CC(C)(CC3C)C2C1=O (stereo not given) | > 100 | > 100 | – | – | > 100 | > 100 | – | – | > 100 | > 100 | > 100 µM | > 100 | > 100 µM | > 100 | > 100 | > 100 | > 100 | > 100 | > 100 | > 100

Source: PubChem BioAssay (NCI)
